Test results taken from ChEMBL document CHEMBL5143708, “New antimalarials identified by a cell-based phenotypic approach: Structure-activity relationships of 2,3,4,9-tetrahydro-1H-β-carboline derivatives possessing a 2-((coumarin-5-yl)oxy)alkanoyl moiety” (Bioorg Med Chem, 2022).
The source made the active and inactive calls. The rule behind the calls is not given here.

Assays:
[1] = system: Plasmodium falciparum; test: Antiplasmodial activity against Plasmodium falciparum 3D7 infected in human RBC assessed as reduction in parasite growth after 72 hrs by LDH assay; type: functional, organism-based; conditions: 3D7, Erythrocyte
[2] = Cytotoxicity against human HL-60 cells assessed as reduction in cell viability after 48 hrs by Cell Count Reagent SF based assay; type: toxicity
[3] = system: Plasmodium falciparum; test: Antiplasmodial activity against chloroquine-resistant Plasmodium falciparum K1 infected in human RBC assessed as reduction in parasite growth after 72 hrs by LDH assay; type: functional, organism-based; conditions: K1, Erythrocyte
[4] = system: Plasmodium falciparum; test: Antiplasmodial activity against chloroquine-resistant Plasmodium falciparum Dd2 infected in human RBC assessed as reduction in parasite growth after 72 hrs by LDH assay; type: functional, organism-based; conditions: Dd2, Erythrocyte
[5] = system: Plasmodium berghei; test: Antimalarial activity against Plasmodium berghei ANKA infected in ICR mouse assessed as reduction in parasitemia level at 40 to 200 mg/kg, ip administered for 4 to 7 days after post-infection by Giemsa staining based microscopic analysis; type: functional, organism-based; conditions: dose 40-200 mg/kg, time 4-7 day
[6] = Tmax in ICR mouse at 40 mg/kg, ip; type: ADME, organism-based; conditions: in vivo
[7] = system: Plasmodium berghei; test: Antimalarial activity against Plasmodium berghei ANKA infected in ICR mouse assessed as increase in survival at 40 mg/kg, ip administered for 4 to 7 days after post-infection and measured on day 11 post-infection by Giemsa staining based microscopic analysis; type: functional, organism-based; conditions: time 8.0 day
[8] = system: Plasmodium berghei; test: Antimalarial activity against Plasmodium berghei ANKA infected in ICR mouse assessed as increase in body weight at 200 mg/kg, ip administered for 4 to 7 days after post-infection and measured on day 11 post-infection by Giemsa staining based microscopic analysis; type: functional, organism-based; conditions: time 8.0 day
[9] = Toxicity in ICR mouse infected with Plasmodium berghei ANKA assessed as decrease in body weight at 200 mg/kg, ip administered for 4 to 7 days after post-infection by Giemsa staining based microscopic analysis; type: organism-based; conditions: in vivo, time 4-7 day
[10] = system: Plasmodium berghei; test: Antimalarial activity against Plasmodium berghei ANKA infected in ICR mouse assessed as increase in body weight at 40 mg/kg, ip administered for 4 to 7 days after post-infection by Giemsa staining based microscopic analysis; type: functional, organism-based; conditions: time 4-7 day
[11] = Half life in ICR mouse at 40 mg/kg, ip; type: ADME, organism-based; conditions: in vivo
[12] = Toxicity in ICR mouse infected with Plasmodium berghei ANKA assessed as decrease in body weight at 200 mg/kg, ip administered for 4 to 7 days after post-infection and measured on day 18 post-infection by Giemsa staining based microscopic analysis; type: organism-based; conditions: in vivo, 360 h, time 15 day
[13] = Cmax in ICR mouse at 40 mg/kg, ip; type: ADME, organism-based; design: dose 40 mg/kg, route ip; conditions: in vivo
[14] = system: Plasmodium berghei; test: Antimalarial activity against Plasmodium berghei ANKA infected in ICR mouse assessed as increase in survival at 200 mg/kg, ip administered for 4 to 7 days after post-infection and measured on day 19 post-infection by Giemsa staining based microscopic analysis; type: functional, organism-based; conditions: time 16.0 day
[15] = AUC in ICR mouse at 40 mg/kg, ip; type: ADME, organism-based; design: dose 40 mg/kg, route ip; conditions: in vivo

Row | Structure (SMILES) | IC50 [1] [nM] | IC50 at 48 h [2] [nM] | also measured
1 | CCCCc1cc(=O)oc2cc(C)cc(O[C@@H](C)C(=O)N3Cc4[nH]c5ccccc5c4C[C@H]3C(=O)OC)c12 | 190 | > 3000 | 
2 | CCCCc1cc(=O)oc2cc(C)cc(OC(C)C(=O)N3Cc4[nH]c5ccccc5c4C[C@H]3C(=O)OC)c12 (some centres undefined) | 6.8 | > 3000 | 
3 | CCCc1cc(=O)oc2cc(C)cc(O[C@H](C)C(=O)N3Cc4[nH]c5ccccc5c4C[C@H]3C(=O)OC)c12 | 1.9 | > 3000 | IC50 [3]: 1.9 nM; IC50 [4]: 2.1 nM
4 | CCCCc1cc(=O)oc2cc(C)cc(O[C@H](C)C(=O)N3Cc4[nH]c5ccccc5c4C[C@H]3C#N)c12 | 4.1 | > 3000 | 
5 | CCCCc1cc(=O)oc2cc(C)cc(O[C@H](C)C(=O)N3Cc4[nH]c5ccccc5c4C[C@H]3C(=O)OCC)c12 | 55 | > 3000 | 
6 | CCCCc1cc(=O)oc2cc(C)cc(OCC(=O)N3Cc4[nH]c5ccccc5c4C[C@H]3C(=O)OC)c12 | 20 | > 3000 | IC50 [3]: 20 nM; IC50 [4]: 24 nM
7 | CCCCc1cc(=O)oc2cc(C)cc(O[C@H](C)C(=O)N3Cc4[nH]c5ccccc5c4C[C@H]3C(C)=O)c12 | 5.6 | > 3000 | 
8 | CCCCc1cc(=O)oc2cccc(O[C@H](C)C(=O)N3Cc4[nH]c5ccccc5c4C[C@H]3C(=O)OC)c12 | 4.1 | > 3000 | 
9 | CCCCc1cc(=O)oc2cc(C)cc(O[C@H](C)C(=O)N[C@@H](Cc3c[nH]c4ccccc34)C(=O)OC)c12 | 55 | > 3000 | 
10 | COC(=O)[C@@H]1Cc2c([nH]c3ccccc23)CN1C(=O)[C@@H](C)Oc1cc(C)cc2oc(=O)cc(C)c12 | 40 | > 3000 | 
11 | CCc1cc(=O)oc2cc(C)cc(O[C@H](C)C(=O)N3Cc4[nH]c5ccccc5c4C[C@H]3C(=O)OC)c12 | 11 | > 3000 | 
12 | CCCCc1cc(=O)oc2cc(C)cc(O[C@H](C)C(=O)N3Cc4[nH]c5ccccc5c4C[C@H]3C(=O)OC)c12 | 2 | > 3000 | Activity [5]: Active; Tmax [6]: 2 h; IC50 [3]: 2.6 nM; Activity [7]: Active; Activity [8]: Active; Activity [9]: Toxic; Activity [10]: Active; half-life [11]: 2.14 h; Activity [12]: Toxic; Cmax [13]: 7120 ng/mL; Activity [14]: Active; AUC [15]: 25600 ng·h/mL; IC50 [4]: 2.2 nM
13 | CCCCc1cc(=O)oc2cc(C)cc(OC(CCC)C(=O)N3Cc4[nH]c5ccccc5c4C[C@H]3C(=O)OC)c12 (some centres undefined) | 5.9 | > 3000 | 
14 | CCCCc1cc(=O)oc2cc(C)cc(O[C@H](C)C(=O)N3Cc4[nH]c5ccc(F)cc5c4C[C@H]3C(=O)OC)c12 | 5.5 | > 3000 | 
15 | COC(=O)[C@@H]1Cc2c([nH]c3ccccc23)CN1C(=O)[C@@H](C)Oc1cc(C)cc2oc(=O)cc(CC3CC3)c12 | 3.5 | > 3000 | 
16 | CCCCc1cc(=O)oc2cc(C)cc(O[C@H](C)C(=O)N3CCc4c([nH]c5ccccc45)C3)c12 | 72 | > 3000 | 
17 | CCCCc1cc(=O)oc2cc(N3CCOCC3)cc(O[C@H](C)C(=O)N3Cc4[nH]c5ccccc5c4C[C@H]3C(=O)OC)c12 | 210 | > 3000 | 
18 | CCCCc1coc2cc(C)cc(O[C@H](C)C(=O)N3Cc4[nH]c5ccccc5c4C[C@H]3C(=O)OC)c12 | 220 | > 3000 | 
19 | CCCCc1cc(=O)oc2cc(C)cc(OC(CC)C(=O)N3Cc4[nH]c5ccccc5c4C[C@H]3C(=O)OC)c12 (some centres undefined) | 7 | > 3000 | 
20 | CCCCc1cc(=O)oc2cc(C)cc(OCC(=O)N3Cc4[nH]c5ccccc5c4C[C@H]3C(=O)NC)c12 | > 3000 | > 3000 | 
21 | CCCCc1cc(=O)oc2cc(Br)cc(O[C@H](C)C(=O)N3Cc4[nH]c5ccccc5c4C[C@H]3C(=O)OC)c12 | 9.6 | > 3000 | 
22 | CCCCc1cc(=O)oc2cc(C)cc(OCC(=O)N3Cc4[nH]c5ccccc5c4C[C@@H]3C(=O)OC)c12 | 980 | > 3000 | 
23 | CCCCc1cc(=O)oc2cc(C)cc(OC(CCCC)C(=O)N3Cc4[nH]c5ccccc5c4C[C@H]3C(=O)OC)c12 (some centres undefined) | 10 | > 3000 | 
24 | CCCCC(=O)c1c(OC)cc(C)cc1O[C@H](C)C(=O)N1Cc2[nH]c3ccccc3c2C[C@H]1C(=O)OC | 2400 | > 3000 | 
25 | CCCCc1coc2cc(C)cc(O[C@H](C)C(=O)N3Cc4[nH]c5ccccc5c4C[C@H]3C#N)c12 | 110 | > 3000 | 
26 | CCCCc1cc(=O)oc2cc(C)cc(OC(C(=O)N3Cc4[nH]c5ccccc5c4C[C@H]3C(=O)OC)C(C)C)c12 (some centres undefined) | 6.4 | > 3000 | 
